Assay results taken from ChEMBL document CHEMBL1201862, “PubChem BioAssay data set” (2004).
Counter-ions that a name gives are not always drawn.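 Results reflect a 48-hour exposure of cells in 96-well plates to compound at five concentrations. At the GI50, growth is halved.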 Calls of active or inactive are those of the source. Rule as the data show it: active = GI50 up to about 1.1 µM and inactive = higher.

Legend:
Test in all cases: NCI anticancer screen, dose series, 48 h
XF498 = system: XF498
M19-MEL = system: M19-MEL
RXF 631 = system: RXF 631
DLD-1 = system: DLD-1
DMS-114 = system: DMS-114
DMS-273 = system: DMS-273
KM-20L2 = system: KM-20L2
HOP-18 = system: HOP-18
SNB-78 = system: SNB-78

SMILES	GI50 (XF498)	GI50 (M19-MEL)	GI50 (RXF 631)	GI50 (DLD-1)	GI50 (DMS-114)	GI50 (DMS-273)	GI50 (KM-20L2)	GI50 (HOP-18)	GI50 (SNB-78)
COc1cc2c(cc1O)CCN[C@@]21CS[C@H]2c3c(OC(C)=O)c(C)c4c(c3C(COC1=O)N1C2C2c3c(cc(C)c(OC)c3O)CC([C@@H]1O)N2C)OCO4 (stereo not given in full)	< 1e-06 µM (active)	< 1e-06 µM (active)	< 1e-06 µM (active)	< 1e-06 µM (active)	< 1e-06 µM (active)	< 1e-06 µM (active)	< 1e-06 µM (active)		
Cc1cccc2[s+]snc12	> 100 µM (inactive)	> 60.3 µM (inactive)	19.7 µM (inactive)	26.7 µM (inactive)	> 58.5 µM (inactive)	> 100 µM (inactive)	> 100 µM (inactive)	> 100 µM (inactive)	> 100 µM (inactive)
CCOC(=O)C1=C(C)CC2C(=O)OC(=O)C2C1(C)C (stereo not given)		> 100 µM (inactive)		> 100 µM (inactive)	> 100 µM (inactive)			> 100 µM (inactive)	
O=C(/C=C/c1ccccc1Cl)c1ccc(Cl)c(Cl)c1		16.3 µM (inactive)		15.8 µM (inactive)		19.9 µM (inactive)	17.3 µM (inactive)	14.8 µM (inactive)	16.2 µM (inactive)
O=C(CCc1nnc2s/c(=C\c3ccc(Cl)c(Cl)c3)c(=O)n12)Nc1ccc(Cl)c(Cl)c1	38.7 µM (inactive)	64.7 µM (inactive)			91.2 µM (inactive)		> 100 µM (inactive)	75.7 µM (inactive)	
C[n+]1cc(C(O)c2ccc3c(c2)OCO3)c2ccccc2c1 (stereo not given)		40.6 µM (inactive)	40.8 µM (inactive)	31.8 µM (inactive)	21.9 µM (inactive)	31.2 µM (inactive)	45.5 µM (inactive)		28.6 µM (inactive)
CC1(C)CC(=O)C(C(=O)Nc2cccs2)=C(O)C1	43 µM (inactive)	41.2 µM (inactive)	36.5 µM (inactive)	39.5 µM (inactive)		25.2 µM (inactive)	38.2 µM (inactive)	21.6 µM (inactive)	36.1 µM (inactive)
COc1ccc(/C=C2\CCC(Cc3ccccc3)(CN(C)C)C2=O)cc1 (stereo not given)		28.4 µM (inactive)		26.4 µM (inactive)	18.2 µM (inactive)	15.2 µM (inactive)	23.4 µM (inactive)	> 100 µM (inactive)	35.5 µM (inactive)
Cc1[nH]c2ccccc2c1C(=O)CC1(O)C(=O)Nc2ccccc21 (stereo not given)		> 100 µM (inactive)	> 100 µM (inactive)	> 100 µM (inactive)		> 100 µM (inactive)	> 100 µM (inactive)		61 µM (inactive)
Nn1c(-c2cccc(Cl)c2)nc2ccccc2c1=O	23.5 µM (inactive)		> 100 µM (inactive)	> 100 µM (inactive)	> 100 µM (inactive)	> 100 µM (inactive)	> 100 µM (inactive)	68.5 µM (inactive)	> 100 µM (inactive)
CC(=O)CC(=O)OC1CC(C)CCC1C(C)C (stereo not given)	> 100 µM (inactive)	34.6 µM (inactive)	> 100 µM (inactive)	24.7 µM (inactive)	37.2 µM (inactive)	41.9 µM (inactive)			> 100 µM (inactive)
CSc1nc(Cl)c(Br)c(Sc2nc(N)nc3nc[nH]c23)n1	15.8 µM (inactive)	7.45 µM (inactive)		11.1 µM (inactive)	4.74 µM (inactive)	3.14 µM (inactive)	5.9 µM (inactive)		
CC(=O)OCC(OC(C)=O)C(OC(C)=O)C(OC(C)=O)C(=O)CNn1c(-c2ccccc2Cl)nc2ccccc2c1=O (stereo not given)		> 100 µM (inactive)			> 100 µM (inactive)	> 100 µM (inactive)	> 100 µM (inactive)		> 100 µM (inactive)
CCOC(=O)CC(C)C1(C=O)CCCCC1=O (stereo not given)	> 100 µM (inactive)	> 100 µM (inactive)	> 100 µM (inactive)	56 µM (inactive)	23 µM (inactive)	21.1 µM (inactive)	> 100 µM (inactive)	> 100 µM (inactive)	> 100 µM (inactive)
Nc1ccc(C(=O)CC2(O)C(=O)Nc3ccccc32)cc1 (stereo not given)	> 100 µM (inactive)	> 100 µM (inactive)		> 100 µM (inactive)	> 100 µM (inactive)	> 100 µM (inactive)	> 100 µM (inactive)		> 100 µM (inactive)
COc1ccc(CN2C(=O)[C@@H]3Cc4c(OC)c(C)c(OC)c(OC)c4[C@H](/C2=C\c2cc(OC)c(OC)c(C)c2OC)N3C(=O)OC(C)C)cc1		42.7 µM (inactive)	> 100 µM (inactive)	69.3 µM (inactive)	7.38 µM (inactive)	19.3 µM (inactive)	> 100 µM (inactive)	> 100 µM (inactive)	
COc1ccc2c(c1)CCC1C3(CCCC21C)OCCO3 (stereo not given)		18.6 µM (inactive)	23.9 µM (inactive)	15.7 µM (inactive)		17.5 µM (inactive)	19.7 µM (inactive)	23.1 µM (inactive)	19.4 µM (inactive)
C[Si](C)(C)c1ccc(-c2sc(-c3ccc([Si](C)(C)C)s3)c3c2C[Si]2(C3)Cc3c(-c4ccc([Si](C)(C)C)s4)sc(-c4ccc([Si](C)(C)C)s4)c3C2)s1	> 100 µM (inactive)	> 100 µM (inactive)	> 100 µM (inactive)	> 100 µM (inactive)		> 100 µM (inactive)	> 100 µM (inactive)		> 100 µM (inactive)
CCCCCCCCCCCCCCNCC(OCC)OCC	13.6 µM (inactive)	16.2 µM (inactive)		13.7 µM (inactive)	12.1 µM (inactive)		10.9 µM (inactive)	16.6 µM (inactive)	16.8 µM (inactive)
O=C(CC1(O)C(=O)Nc2c(Cl)cc(Cl)cc21)c1ccc(Br)cc1 (stereo not given)		7.76 µM (inactive)	12.4 µM (inactive)	13.2 µM (inactive)	20.6 µM (inactive)	13.5 µM (inactive)	16.8 µM (inactive)	15.7 µM (inactive)	19.1 µM (inactive)
COC(=O)C1C(=O)NC2(C)CC1c1ccccc1O2 (stereo not given)	> 100 µM (inactive)	> 100 µM (inactive)		> 100 µM (inactive)	> 100 µM (inactive)	> 100 µM (inactive)			> 100 µM (inactive)
CC1=C2[C@@H](c3ccccc3)C3C=CC2(c2ccccc23)N(C(=O)Nc2cccc3ccccc23)C1=O (stereo not given in full)	> 100 µM (inactive)				> 100 µM (inactive)	> 100 µM (inactive)	> 100 µM (inactive)	> 100 µM (inactive)	> 100 µM (inactive)
N#C/C(=C1\N=NC(N)=C(c2ccc(Cl)cc2)C1=O)c1ccc(Cl)cc1	> 100 µM (inactive)	> 100 µM (inactive)		> 100 µM (inactive)	> 100 µM (inactive)	> 100 µM (inactive)	> 100 µM (inactive)	> 100 µM (inactive)	> 100 µM (inactive)
Nc1ncnc2c1ncn2C1CC(O)C(CO)O1 (stereo not given)		> 100 µM (inactive)		> 100 µM (inactive)	> 100 µM (inactive)	> 100 µM (inactive)	> 100 µM (inactive)		> 100 µM (inactive)
CC(NC(C)(C)C)C(=O)c1cccc(Cl)c1 (stereo not given) [BUPROPION HYDROCHLORIDE]	> 100 µM (inactive)	> 100 µM (inactive)	> 100 µM (inactive)	> 100 µM (inactive)	> 100 µM (inactive)	> 100 µM (inactive)	> 100 µM (inactive)		
